According to patent US9403834B2, “Pyrrolotriazines as potassium ion channel inhibitors” (BRISTOL-MYERS SQUIBB COMPANY, priority 2013, dated 2016):

Target: T1, human Kv 1.5 (Homo sapiens, UniProt P22460)
T1 construct: expressed in transfected cells; host or cells: mammalian L-929 cells (mouse fibroblasts)
Experiment: block of IKur current in patch clamped L-929 cells expressing human Kv1.5
Type: cell-based
Conditions: patch clamped mammalian L-929 cells stably expressing IKur protein; for inhibition at 0.3 µM: L929, 0.3 μM, read-out: Percentage inhibition of Kv1.5 in L-929 cells at 0.3 μM
Description: Assays to determine the degree of activity of a compound as an IKur inhibitor are well known in the art and are described in references such as J. Gen. Physiol., 101(4):513-543 (April 1993), and Br. J. Pharmacol., 115(2):267-274 (May 1995).
1. Synders, D. J. et al., “A rapidly activating and slowly inactivating potassium channel cloned from human heart: functional analysis after stable mammalian cell culture expression”, J. Gen. Physiol., 101:513-543 (1993).
2. Zhou, Z. et al., “Block of HERG potassium channels by the antihistamine astemizole and its metabolites desmethylastemizole and norastemizole”, J. Cardiovasc. Electrophysiol., 10(6):836-843 (1999).

T1 sequence (P22460 whole entry): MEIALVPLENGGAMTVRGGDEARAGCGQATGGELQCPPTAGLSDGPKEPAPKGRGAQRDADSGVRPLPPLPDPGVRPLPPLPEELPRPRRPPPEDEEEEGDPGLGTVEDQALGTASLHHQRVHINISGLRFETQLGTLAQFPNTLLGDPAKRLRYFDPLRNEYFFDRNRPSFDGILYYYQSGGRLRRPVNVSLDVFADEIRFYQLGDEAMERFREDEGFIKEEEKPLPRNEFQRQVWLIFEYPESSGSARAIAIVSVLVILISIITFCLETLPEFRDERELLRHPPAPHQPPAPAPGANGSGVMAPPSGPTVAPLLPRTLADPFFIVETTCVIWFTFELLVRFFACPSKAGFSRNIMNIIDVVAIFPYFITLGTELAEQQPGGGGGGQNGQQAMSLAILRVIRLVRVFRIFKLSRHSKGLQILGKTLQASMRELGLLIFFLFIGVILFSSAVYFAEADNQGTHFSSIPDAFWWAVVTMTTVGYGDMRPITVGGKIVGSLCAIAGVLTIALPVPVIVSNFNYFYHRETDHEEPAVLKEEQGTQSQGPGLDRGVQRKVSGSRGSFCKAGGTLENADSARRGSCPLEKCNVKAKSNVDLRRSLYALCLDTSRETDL

Row | SMILES | Percentage inhibition of Kv1.5 in L-929 cells at 0.3 μM (0.3 μM) [%] | inhibition at 0.3 µM [%]
1 | CC(Nc1nnc(-c2cncc(S(N)(=O)=O)c2)n2ccc(-c3ccccc3)c12)c1ccccn1 (single isomer, unassigned) [Example 5, 5-(8-phenyl-1-(1-(pyridin-2-yl)ethylamino)pyrrolo[1,2-d][1,2,4]triazin-4-yl)pyridine-3-sulfonamide] | 88 | 
2 | CC(Nc1nnc(-c2cncc(S(N)(=O)=O)c2)n2ccc(-c3ccccc3)c12)c1ccccn1 (single isomer, unassigned) [Example 6, 5-(8-phenyl-1-(1-(pyridin-2-yl)ethylamino)pyrrolo[1,2-d][1,2,4]triazin-4-yl)pyridine-3-sulfonamide] |  | 92
3 | NS(=O)(=O)c1cncc(-c2nnc(NCc3ccccc3)c3c(-c4ccccc4)ccn23)c1 [Example 1, 5-(1-(Benzylamino)-8-phenylpyrrolo[1,2-d][1,2,4]triazin-4-yl)pyridine-3-sulfonamide] |  | 89
4 | NS(=O)(=O)c1cncc(-c2nnc(Nc3cccc(F)c3)c3c(-c4ccccc4)ccn23)c1 [Example 2, 5-(1-(3-Fluorophenylamino)-8-phenylpyrrolo[1,2-d][1,2,4]triazin-4-yl)pyridine-3-sulfonamide] |  | 91
5 | NS(=O)(=O)c1cc(-c2nnc(NCc3ccccn3)c3c(-c4ccccc4)ccn23)cnc1C(F)F [Example 3, 2-(Difluoromethyl)-5-(8-phenyl-1-(pyridin-2-ylmethylamino)pyrrolo[1,2-d][1,2,4]triazin-4-yl)pyridine-3-sulfonamide] |  | 95
6 | NS(=O)(=O)c1cncc(-c2nnc(NCc3ccccn3)c3c(-c4ccccc4)ccn23)c1 [Example 4, 5-(8-phenyl-1-(pyridin-2-ylmethylamino)pyrrolo[1,2-d][1,2,4]triazin-4-yl)pyridine-3-sulfonamide] |  | 86

Now from value to molecule:

Row | Percentage inhibition of Kv1.5 in L-929 cells at 0.3 μM (0.3 μM) [%] | inhibition at 0.3 µM [%] | SMILES
7 |  | 98 | NS(=O)(=O)c1cncc(-c2nnc(NCc3ncccc3F)c3c(-c4ccccc4)ccn23)c1 [Example 7, 5-(1-(((3-fluoropyridin-2-yl)methyl)amino)-8-phenylpyrrolo[1,2-d][1,2,4]triazin-4-yl)pyridine-3-sulfonamide]
8 |  | 93 | NS(=O)(=O)c1cncc(-c2nnc(NCc3ccccc3F)c3c(-c4ccccc4)ccn23)c1 [Example 8, 5-(1-(2-fluorobenzylamino)-8-phenylpyrrolo[1,2-d][1,2,4]triazin-4-yl)pyridine-3-sulfonamide]
9 |  | 92 | NS(=O)(=O)c1cncc(-c2nnc(NCc3c(F)cccc3F)c3c(-c4ccccc4)ccn23)c1 [Example 9, 5-(1-(2,6-difluorobenzylamino)-8-phenylpyrrolo[1,2-d][1,2,4]triazin-4-yl)pyridine-3-sulfonamide]
